Laboratory results as given in patent US6844352B2, “1′-[4-[1-(4-fluorophenyl)-1H-indole-3-yl]-1-butyl]-spiro[isobenzofuran-1(3H),4′-piperidine] hydrohalogenides” (H. Lundbeck A/S, priority 1997, dated 2005).

Experiments:
[1] = Bioavailability study after multiple oral administration in Beagle dogs (serum levels by HPLC); assay type: in vivo; details: both sexes, dog, area under serum concentration versus time curve 0-24 hours after dosing on day 7, 10 mg/kg/day (as free base) orally in gelatine capsules for 7 days, read-out: AUC0-24.7 Mean
Method: After multiple administration in Beagle dogs, the bioavailability of the salts of 1′-[4-[1-(4-fluorophenyl)-1H-indole-3-yl]-1-butyl]-spiro[isobenzofuran-1(3H),4′-piperidine] was investigated as described in the following study:
Two groups, each consisting of four Beagle dogs (2 males and 2 females) were used in the study.
The dogs in the individual groups were given single daily doses of 10 mg/kg/day (calculated as free base) of the fumarate and the hydrochloride of 1′-[4-[1-(4-fluorophenyl)-1H-indole-3-yl]-1-butyl]-spiro[isobenzofuran-1(3H),4′-piperidine] for seven days.
Blood samples for serum preparation were drawn from the test animals at specific nominal time points before and after dosing on each day and analyzed using HPLC. […]
Single doses of the different salts corresponding to 10.0 mg (˜21997 nmol ) of 1′-[4-[1-(4-fluorophenyl)-1H-indole-3-yl]-1-butyl]-spiro[isobenzofuran-1(3H),4′-piperidine] per kg body weight were accurately weighed into gelatine capsules. The calculated amounts of test compound for each dog were based on body weights measured at study start. […]
The exact blood sampling times for each dog relative to the first dose were recorded. […]
The serum samples obtained were analysed for content of 1′-[4-[1-(4-fluorophenyl)-1H-indole-3-yl]-1-butyl]-spiro[isobenzofuran-1(3H),4′-piperidine] by a pseudo-normal phase HPLC-method after liquid-liquid extraction. […]

Aqueous solubility = assay type: physicochemical
[2] = Bioavailability experiments in rats; assay type: in vivo
[3] = Bioavailability experiments in dogs; assay type: in vivo
sigma receptors = details: cited from earlier work
rats = details: cited from earlier work
sigma receptor = details: cited from earlier work

## Fc1ccc(-n2cc(CCCCN3CCC4(CC3)OCc3ccccc34)c3ccccc32)cc1.O=C(O)/C=C/C(=O)O [Fumarate, 1′-[4-[1-(4-fluorophenyl)-1H-indole-3-yl]-1-butyl]-spiro[isobenzofuran-1(3H),4′-piperidine], fumarate]
[1]
  AUC(0-t): 4.02 µM·h
Aqueous solubility
  aqueous solubility: very low
[2]
  bioavailability: limited bioavailablity
[3]
  bioavailability: limited bioavailablity

## Cl.Fc1ccc(-n2cc(CCCCN3CCC4(CC3)OCc3ccccc34)c3ccccc32)cc1 [Hydrochloride, 1′-[4-[1-(4-fluorophenyl)-1H-indole-3-yl]-1-butyl]-spiro[isobenzofuran-1(3H),4′-piperidine], hydrochloride]
[1]
  AUC(0-t): 12 µM·h
Aqueous solubility
  water solubility compared to the fumarate: improved water solubility

## Fc1ccc(-n2cc(CCCCN3CCC4(CC3)OCc3ccccc34)c3ccccc32)cc1 [free base, 1′-[4-[1-(4-fluorophenyl)-1H-indole-3-yl]-1-butyl]-spiro[isobenzofuran-1(3H),4′-piperidine]]
Aqueous solubility
  aqueous solubility: very low
Sigma receptors
  sigma ligand potency and selectivity: potent and selective sigma ligand
rats
  anxiolytic potential in black/white exploration test: active over a large dose range

## C[C@@H]1CN(CCCn2c3ccccc3c3ccccc32)C[C@H](C)N1 [rimcazole]
Sigma receptor
  clinical effect in the treatment of psychoses: clinically shows effect
